Laboratory results: EP2582674B1 (Cymabay Therapeutics, Inc., priority 2010, dated 2011)

target: T1, human GPR120 (Homo sapiens, UniProt Q5NUL3); experiment: Intracellular Ca2+ assay in human GPR120 stable cell line (FLIPR Calcium 4 dye, Flexstation); format: cell-based; details: % activity at 2.5 µM compared to the maximal activity of the compound of Example 25 at 2.5 µM (=100%); HEK293 cells co-expressing Gqi5
T1 construct: host or cells: HEK293 cells co-expressing Gqi5
T1 sequence (Q5NUL3 1-361): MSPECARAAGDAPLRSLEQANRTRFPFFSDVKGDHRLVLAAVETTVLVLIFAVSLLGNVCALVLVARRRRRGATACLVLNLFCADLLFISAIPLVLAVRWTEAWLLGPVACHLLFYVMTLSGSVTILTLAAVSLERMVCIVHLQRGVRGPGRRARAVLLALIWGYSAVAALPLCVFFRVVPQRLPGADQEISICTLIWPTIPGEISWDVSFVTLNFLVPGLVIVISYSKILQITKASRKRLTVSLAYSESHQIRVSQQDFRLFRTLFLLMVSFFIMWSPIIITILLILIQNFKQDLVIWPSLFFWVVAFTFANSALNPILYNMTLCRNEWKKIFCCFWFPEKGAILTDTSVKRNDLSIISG

In order of rising “% Activity (Ex. 25 Reference Compound)” value:
1. CC1(C)Cc2cc(F)cc(COc3c(F)cc(CC4CC4C(=O)O)cc3F)c2O1 (centres unmarked) [Example 184, 2-(3,5-difluoro-4-((5-fluoro-2,2-dimethyl-2,3-dihydrobenzofuran-7-yl)methoxy)benzyl)cyclopropanecarboxylic acid]  97.04%
2. CC1(C)Cc2cc(F)cc(COc3ccc(C4CC4C(=O)O)cc3)c2O1 (centres unmarked) [Example 131B, 2-(4-((5-fluoro-2,2-dimethyl-2,3-dihydrobenzofuran-7-yl)methoxy)phenyl) cyclopropanecarboxylic acid]  105.8%

same assay, conditions: HEK293, % activity at 2.5 µM compared to the maximal activity of the compound of Example 25 at 2.5 µM (=100%); HEK293 cells co-expressing Gqi5; read-out: % Activity (Ex. 25 Reference Compound)

In order of rising activity at 2.5 µM:
1. Cc1cc2c(OCc3cc(F)cc4c3OC(C)(C)C4)ccc(CCC(=O)O)c2o1 [Example 125, 3-(4-((5-fluoro-2,2-dimethyl-2,3-dihydrobenzofuran-7-yl)methoxy)-2-methylbenzofuran-7-yl)propanoic acid]  32.6%
2. CC(=O)NCCOC(=O)C(C)Cc1ccc(OCc2cc(Cl)cc3c2OC(C)(C)C3)c(C(F)(F)F)c1 (centres unmarked) [Example 126, 2-acetamidoethyl 3-(4-((5-chloro-2,2-dimethyl-2,3-dihydrobenzofuran-7-yl)methoxy)-3-(trifluoromethyl)phenyl)-2-methylpropanoate]  47%
3. Cc1cc2cccc(COc3ccc4c(c3)CCC4CC(=O)O)c2s1 (centres unmarked) [Example 152, 2-(5-((2-methylbenzo[b]thiophen-7-yl)methoxy)-2,3-dihydro-1H-inden-1-yl)acetic acid]  83.8%
4. C[C@H](Cc1ccc(OCc2cc(Cl)cc3c2OC(C)(C)C3)c(C(F)(F)F)c1)C(=O)O [Example 143, (R)-3-(4-((5-chloro-2,2-dimethyl-2,3-dihydrobenzofuran-7-yl)methoxy)-3-(trifluoromethyl)phenyl)-2-methylpropanoic acid]  90.6%
5. CC(CC(=O)O)Cc1ccc(OCc2cc(F)cc3c2OC(C)(C)C3)cc1 (centres unmarked) [Example 182, 4-(4-((5-fluoro-2,2-dimethyl-2,3-dihydrobenzofuran-7-yl)methoxy)phenyl)-3-methylbutanoic acid]  98.4%
6. CC(CCc1ccc(OCc2cc(F)cc3c2OC(C)(C)C3)cc1)C(=O)O (centres unmarked) [Example 171, 4-(4-((5-fluoro-2,2-dimethyl-2,3-dihydrobenzofuran-7-yl)methoxy)phenyl)-2-methylbutanoic acid]  99%
7. CC1(C)Cc2cc(F)cc(COc3ccc(CC(=O)O)cc3)c2O1 [Example 133, 2-(4-((5-fluoro-2,2-dimethyl-2,3-dihydrobenzofuran-7-yl)methoxy)phenyl)acetic acid]  103%
8. CC(Cc1ccc(OCc2cc(Cl)cc3c2OC(C)(C)C3O)cc1)C(=O)O (centres unmarked) [Example 130, 3-(4-((5-chloro-3-hydroxy-2,2-dimethyl-2,3-dihydrobenzofuran-7-yl)methoxy)phenyl)-2-methylpropanoic acid]  104%
9. CC1(C)Cc2cc(F)cc(COc3ccc(C4CC4C(=O)O)cc3)c2O1 (centres unmarked) [Example 131A, 2-(4-((5-fluoro-2,2-dimethyl-2,3-dihydrobenzofuran-7-yl)methoxy)phenyl) cyclopropanecarboxylic acid]  104%
10. CC1(C)Cc2c(COc3ccc4c(c3)CC[C@@H]4CC(=O)O)cc(F)cc2O1 [Example 188, (R)-2-(5-((6-fluoro-2,2-dimethyl-2,3-dihydrobenzofuran-4-yl)methoxy)-2,3-dihydro-1H-inden-1-yl)acetic acid]  104%
11. CC1(C)Cc2cc(Cl)cc(COc3ccc4c(c3)CC[C@@H]4CC(=O)O)c2O1 [Example 179, (R)-2-(5-((5-chloro-2,2-dimethyl-2,3-dihydrobenzofuran-7-yl)methoxy)-2,3-dihydro-1H-inden-1-yl)acetic acid]  105%
12. CC1(C)Cc2cc(F)cc(COc3ccc4c(c3)CCCC4CC(=O)O)c2O1 (centres unmarked) [Example 153, 2-(6-((5-fluoro-2,2-dimethyl-2,3-dihydrobenzofuran-7-yl)methoxy)-1,2,3,4-tetrahydronaphthalen-1-yl)acetic acid]  107%
13. CC(Cc1ccc(OCc2cc(Cl)cc3c2OCC3(C)C)cc1)C(=O)O (centres unmarked) [Example 148, 3-(4-((5-chloro-3,3-dimethyl-2,3-dihydrobenzofuran-7-yl)methoxy)phenyl)-2-methylpropanoic acid]  114%
14. Cc1cc2cccc(COc3c(F)cc(CC(C)C(=O)O)cc3F)c2s1 (centres unmarked) [Example 151, 3-(3,5-difluoro-4-((2-methylbenzo[b]thiophen-7-yl)methoxy)phenyl)-2-methylpropanoic acid]  117%
15. CC(Cc1ccc(OCc2cc(OC(F)(F)F)cc3c2OC(C)(C)C3)cc1)C(=O)O (centres unmarked) [Example 124, 3-(4-((2,2-dimethyl-5-(trifluoromethoxy)-2,3-dihydrobenzofuran-7-yl)methoxy)phenyl)-2-methylpropanoic acid]  132%
16. CC1(C)Cc2cc(Cl)cc(COc3ccc4c(c3)CC[C@H]4CC(=O)O)c2O1 [Example 176, (S)-2-(5-((5-chloro-2,2-dimethyl-2,3-dihydrobenzofuran-7-yl)methoxy)-2,3-dihydro-1H-inden-1-yl)acetic acid]  138%
17. [2H]C1([2H])c2cc(Cl)cc(COc3ccc(CC(C)C(=O)O)cc3C(F)(F)F)c2OC1(C)C (centres unmarked) [Example 147, 3-(4-((3,3-dideuterio-5-chloro-2,2-dimethyl-2,3-dihydrobenzofuran-7-yl)methoxy)-3-(trifluoromethyl)phenyl)-2-methylpropanoic acid]  139%
18. CC1(C)Cc2cc(F)cc(COc3ccc(CCC(=O)O)c(OC(F)(F)F)c3)c2O1 [Example 136, 3-(4-((5-fluoro-2,2-dimethyl-2,3-dihydrobenzofuran-7-yl)methoxy)-2-(trifluoromethoxy)phenyl)propanoic acid]  141%
19. [2H]C1([2H])c2cc(Cl)cc(COc3ccc(CC(C)C(=O)O)cc3F)c2OC1(C)C (centres unmarked) [Example 146, 3-(4-((3,3-dideuterio-5-chloro-2,2-dimethyl-2,3-dihydrobenzofuran-7-yl)methoxy)-3-fluorophenyl)-2-methylpropanoic acid]  141%
20. [2H]C1([2H])c2cc(F)cc(COc3ccc(CC(C)C(=O)O)cc3)c2OC1(C)C (centres unmarked) [Example 145, 3-(4-((3,3-dideuterio-5-fluoro-2,2-dimethyl-2,3-dihydrobenzofuran-7-yl)methoxy)phenyl)-2-methylpropanoic acid]  144%
21. CCc1cc(OCc2cccc3c2CC(C)(C)O3)ccc1CCC(=O)O [Example 140, 3-(4-((2,2-dimethyl-2,3-dihydrobenzofuran-4-yl)methoxy)-2-ethylphenyl)propanoic acid]  146%
22. COc1cc(OCc2cc(Cl)cc3c2OC2(CCCC2)C3)ccc1CCC(=O)O [Example 194, 3-(4-((5-chloro-3H-spiro[benzofuran-2,1'-cyclopentane]-7-yl)methoxy)-2-methoxyphenyl)propanoic acid]  148%
23. CC1(C)Cc2cc(Cl)cc(COc3ccc(C(C)(C)CC(=O)O)cc3)c2O1 [Example 156, 3-(4-((5-chloro-2,2-dimethyl-2,3-dihydrobenzofuran-7-yl)methoxy)phenyl)-3-methylbutanoic acid]  149%
24. CC1(C)Cc2cc(F)cc(COc3ccc4c(c3)CC[C@H]4CC(=O)O)c2O1 [Example 175, (S)-2-(5-((5-fluoro-2,2-dimethyl-2,3-dihydrobenzofuran-7-yl)methoxy)-2,3-dihydro-1H-inden-1-yl)acetic acid]  152%
25. CC1(C)Cc2cc(Cl)cc(CNc3ccc(CCC(=O)O)cc3)c2O1 [Example 127, 3-(4-(((5-chloro-2,2-dimethyl-2,3-dihydrobenzofuran-7-yl)methyl)amino)phenyl) propanoic acid]  153%
26. CC(Cc1ccc(OCc2cc(F)cc3c2OC2(CCCC2)C3)cc1)C(=O)O (centres unmarked) [Example 162, 3-(4-((5-fluoro-3H-spiro[benzofuran-2,1'-cyclopentane]-7-yl)methoxy)phenyl)-2-methylpropanoic acid]  154%
27. COc1cc(CCC(=O)O)ccc1OCc1cc(F)cc2c1OC(C)(C)C2 [Example 173, 3-(4-((5-fluoro-2,2-dimethyl-2,3-dihydrobenzofuran-7-yl)methoxy)-3-methoxyphenyl)propanoic acid]  159%
28. CC(Cc1ccc(OCc2cc(Cl)cc3c2OC2(CCCC2)C3)cc1)C(=O)O (centres unmarked) [Example 159, 3-(4-((5-chloro-3H-spiro[benzofuran-2,1'-cyclopentane]-7-yl)methoxy)phenyl)-2-methylpropanoic acid]  165%
29. CC1(C)Cc2cc(F)cc(COc3ccc(CCCC(=O)O)cc3)c2O1 [Example 160, 4-(4-((5-fluoro-2,2-dimethyl-2,3-dihydrobenzofuran-7-yl)methoxy)phenyl)butanoic acid]  172%

same assay, conditions: eight concentrations from 0.00001 to 20 µM; changes (Max-Min) of fluorescence intensity

`CC(Cc1ccc(OCc2cc(OC(F)(F)F)cc3c2OC(C)(C)C3)cc1)C(=O)O` (centres unmarked) [Example 124, 3-(4-((2,2-dimethyl-5-(trifluoromethoxy)-2,3-dihydrobenzofuran-7-yl)methoxy)phenyl)-2-methylpropanoic acid] and `CC(CCc1ccc(OCc2cc(F)cc3c2OC(C)(C)C3)cc1)C(=O)O` (centres unmarked) [Example 171, 4-(4-((5-fluoro-2,2-dimethyl-2,3-dihydrobenzofuran-7-yl)methoxy)phenyl)-2-methylbutanoic acid] cannot be ordered by EC50: ≤ 1000 nM for the first, 1000 to 10000 nM for the second.

`CC(Cc1ccc(OCc2cc(Cl)cc3c2OC(C)(C)C3O)cc1)C(=O)O` (centres unmarked) [Example 130, 3-(4-((5-chloro-3-hydroxy-2,2-dimethyl-2,3-dihydrobenzofuran-7-yl)methoxy)phenyl)-2-methylpropanoic acid] and `CC(CCc1ccc(OCc2cc(Cl)cc3c2OC(C)(C)C3)cc1)C(=O)O` (centres unmarked) [Example 172, 4-(4-((5-chloro-2,2-dimethyl-2,3-dihydrobenzofuran-7-yl)methoxy)phenyl)-2-methylbutanoic acid] cannot be ordered by EC50: 1000 to 10000 nM for the first, ≤ 1000 nM for the second.

`CC1(C)Cc2cc(F)cc(COc3ccc(CC(=O)O)cc3)c2O1` [Example 133, 2-(4-((5-fluoro-2,2-dimethyl-2,3-dihydrobenzofuran-7-yl)methoxy)phenyl)acetic acid] and `CC(CC(=O)O)Cc1ccc(OCc2cc(Cl)cc3c2OC(C)(C)C3)cc1` (centres unmarked) [Example 183, 4-(4-((5-chloro-2,2-dimethyl-2,3-dihydrobenzofuran-7-yl)methoxy)phenyl)-3-methylbutanoic acid] fall in the same range of EC50: 1000 to 10000 nM for the first, 1000 to 10000 nM for the second.

`COc1cc(CCC(=O)O)ccc1OCc1cc(F)cc2c1OC(C)(C)C2` [Example 173, 3-(4-((5-fluoro-2,2-dimethyl-2,3-dihydrobenzofuran-7-yl)methoxy)-3-methoxyphenyl)propanoic acid] was tested, and the EC50 was 1000 to 10000 nM.
